According to patent US7838580B2, “Salts of alkyl esters of carboxyethyl(alkyl)phosphinic acid” (Clariant Finance (BVI) Limited, priority 2006, dated 2010):

Experiment: Differential thermal analysis (decomposition temperature)
Type: physicochemical
Conditions: ° C. for 2% weight loss
Protocol: The decomposition temperature and the average particle diameter are determined on a flame retardant of the prior art—Exolit® OP 1230.

SMILES	DTA (decomposition in differential thermal analysis) [°C]
CCCCCCCCOC(=O)CCP(C)(=O)[O-].CCCCCCCCOC(=O)CCP(C)(=O)[O-].[Zn+2] [Example 14, H3C—P(═O)(OZn1/2)—CH2—CH2—CO2C8H17]	323
COC(=O)CCP(C)(=O)[O-].COC(=O)CCP(C)(=O)[O-].[Ca+2] [Example 13, H3C—P(═O)(OCa1/2)—CH2—CH2—CO2CH3]	317
COC(=O)CCP(C)(=O)[O-].COC(=O)CCP(C)(=O)[O-].COC(=O)CCP(C)(=O)[O-].[Al+3] [Example 10, H3C—P(═O)(OAl1/3)—CH2—CH2—CO2CH3]	330

The remaining lines, values ahead:

DTA (decomposition in differential thermal analysis) [°C]	SMILES
282	COC(=O)CCP(C)(=O)[O-].COC(=O)CCP(C)(=O)[O-].[Mg+2] [Example 11, H3C—P(═O)(OMg1/2)—CH2—CH2—CO2CH3]
334	COC(=O)CCP(C)(=O)[O-].COC(=O)CCP(C)(=O)[O-].[Zn+2] [Example 12, H3C—P(═O)(OZn1/2)—CH2—CH2—CO2CH3]
